# Legend:
# T. b. brucei = assay: In vitro reversibility of trypanocidal effects (transient exposure); type: cell-based, Trypanosoma brucei brucei
# Protocol: The time and concentration dependency for oxaborole-mediated killing of T. b. brucei, under constant (time-kill) and transient (reversibility) drug-pressure, was determined as described previously (Nare et al. 2010).
# Reversibility was assessed as the ability T. b. brucei parasites to recover from transient exposure (0–24 h) to test benzoxaboroles (0·02–10 μg mL^−1). Trypanosomes were seeded in clear 96-well ‘V’-bottom plates at a density of 1×10^5 parasites per well; one plate was prepared for each time-point. After the designated incubation time, each plate was removed from the incubator and centrifuged at 4400 g for 5 min to sediment parasites. The supernatant containing the test compound was aspirated and three washing cycles were performed where 100 μl of warmed HMI-9 media was added to each well and then aspirated. […] Thus, each concentration and time-point was evaluated in triplicate. Each plate was incubated for a further 72 h, whereupon, trypanocidal activity was determined using resazurin (Sigma-Aldrich, St. Louis, MO) where 20 μl of a 25 mg/100 mL stock in PBS was added, incubated for an additional 4–6 h and fluorescence measured using the EnVision plate reader (excitation wavelength, 530 nm and emission wavelength, 590 nm).
# [1] = Single oral dose pharmacokinetics and CNS penetration in male CD-1 mice; type: in vivo, mouse
# Protocol: The CNS disposition and pharmacokinetics of the benzoxaboroles were evaluated in infected and uninfected mice following oral administration. In vivo phases of single-dose rodent PK studies were performed at Vivisource (Waltham, MA) following Institutional Animal Care and Use Committee (IACUC) review in an Association for Assessment and Accreditation of Laboratory Animal Care International (AAALAC)-approved facility. Studies in Trypanosoma brucei brucei (TREU 667 strain) infected mice, or uninfected satellite animals, were performed after IACUC review at Pace University (NewYork, NY).
# Male CD-1 or female Swiss Webster mice (approximately 25 g) were administered test compounds by oral gavage either once (QD) or twice per day (Q12 h) with doses ranging between 6 and 100 mg kg^−1 as described below. All compounds were formulated as an in situ sodium salt in 2% (v/v) ethanol, 5% (m/v) dextrose, to yield typically clear colourless solutions that were administered at 4 mL kg^−1. Blood samples for pharmacokinetic studies were collected into polypropylene tubes containing K2EDTA anticoagulant and stored on wet ice until centrifuged and processed to plasma. Plasma was stored at −80 °C. Blood samples from mice were collected via cardiac puncture under terminal anaesthesia. Rodents were euthanized in a CO2 chamber before collection of terminal blood or tissue samples. Brain tissues were blotted dry and stored at approximately −80 °C.
# Plasma (50 μL) was treated with 4 volumes of ice-cold methanol (containing 25 ng mL^−1 of either deuterium (d6)-labelled SCYX-7158 internal standard (SCYX-5232) for SCYX-7158 analyses or a related benzoxaborole for other compounds) to precipitate proteins. Treated samples were gently mixed on a 96-well plate shaker for approximately 10 min then centrifuged at approximately 3000 g and 15 °C for 15 min. Supernatants were transferred to fresh 96-well plates for analysis by means of LC-MSMS. Samples of tissue homogenate (50 μL), or buffer from protein binding studies, were treated similarly to plasma samples.
# All biological samples were assayed by a verified LC-MSMS method employing two dimensional chromatographic separation to overcome ion suppression (Annesely, [2003]) caused by co-elution of endogenous components with benzoxaboroles. In summary, treated samples were loaded onto Phenomenex (Torrance, CA) Synergi Polar RP, 4 μ, 50×2 mm extraction columns and subsequently back-eluted onto a Phenomenex Luna C8(2) 3 μ, 50×2 mm analytical columns protected by a Phenomenex C8 guard cartridge. Mobile phases for extraction and analytical columns consisted of 5 mM ammonium formate and 0·1% (v/v) formic acid in water (A), and 5 mM ammonium formate and 0·1% (v/v) formic acid in methanol (B). […]
# [2] = Binding to human plasma protein by rapid equilibrium dialysis; type: in vitro ADME; conditions: 1 μg mL^−1
# Protocol: Binding to plasma proteins, brain homogenates or proteins in serum-fortified HMI-9 media was determined by rapid equilibrium dialysis (RED) (Pierce, Rockford, IL) using a 48-well plate-based format according to the manufacturer's instructions. Briefly, test compound was added to fresh plasma (Bioreclamation, Liverpool, NY) at the required concentrations, freshly prepared brain homogenate or media. Duplicate aliquots of each sample were transferred into the sample chambers of the RED devices, and dialysis buffer (BupH PBS) was added to the buffer chambers. The plates were sealed and incubated at 37 °C for 4 h. After dialysis, samples collected from the buffer and tissue chambers were treated with ice-cold methanol (3 volumes for plasma or HMI-9 media, 4 volumes for brain) to precipitate proteins. The treated samples were centrifuged for 10 min at approximately 3000 g at 15 °C. The supernatants were assayed for test compound by LC-MSMS. Calibration standards and quality control samples were prepared in matched matrix and assayed with samples. Values for unbound and bound fractions and mass balance were calculated. Concordance of binding for each batch of plasma was confirmed by assay of warfarin, imipramine and carbamezapine. Acceptance criterion for mass balance was 70–120%.
smiles,measurement,setting,value
CC1(C)OB(O)c2cc(NC(=O)c3ccc(F)cc3C(F)(F)F)ccc21 [SCYX-7158],reduction in survival relative to untreated control parasites,"T. b. brucei; Cu 0·123 μg mL^−1 (Ct 0·313 μg mL^−1), 24 h incubation",24%
same,exposure time tolerated without impact on survival,T. b. brucei; Cu 1·11 μg mL^−1 (Ct 1·25 μg mL),8 h
same,time CNS (brain) total concentration above MIC,[1],~20 h
same,Mass balance,[2],110%
